Test results: patent US20170081357A1, “[…] ACTIVE 17-NITROGEN SUBSTITUTED ESTRATREINTHIAZOLE DERIVATIVES AS INHIBITORS OF 17.BETA-HYDROXYSTEROID DEHYDROGENASE” (FORENDO PHARMA LTD, priority 2013, published 2017)

Experiments:
[1] = target: T1, recombinant human 17β-HSD2 (Homo sapiens, UniProt P37059); test: Inhibition of recombinant human 17β-HSD2 (conversion of 3H-estradiol to estrone, HPLC); type: biochemical; settings: inhibitor 1 μM; 50 nM estradiol, 1 mM NADH, 30 min at RT
T1 construct: made in house; host or cells: Sd9 (Sf9) insect cells, baculovirus (Bac to Bac Expression System); fractionated cell extract
T1 sequence (P37059 1-387): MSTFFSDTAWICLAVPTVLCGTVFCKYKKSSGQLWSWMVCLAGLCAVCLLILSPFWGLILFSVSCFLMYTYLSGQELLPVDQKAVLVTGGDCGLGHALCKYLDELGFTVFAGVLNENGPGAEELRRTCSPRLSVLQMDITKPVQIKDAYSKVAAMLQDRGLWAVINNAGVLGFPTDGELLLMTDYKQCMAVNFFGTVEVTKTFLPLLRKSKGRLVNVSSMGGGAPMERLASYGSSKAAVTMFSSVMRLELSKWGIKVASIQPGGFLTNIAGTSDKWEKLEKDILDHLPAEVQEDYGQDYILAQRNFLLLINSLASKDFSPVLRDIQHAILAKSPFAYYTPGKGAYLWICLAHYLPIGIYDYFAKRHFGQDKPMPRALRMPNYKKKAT
Procedure: 17β-HSD2 production and isolation: Similarly to 17β-HSD1 the Recombinant baculovirus was generated by the “Bac to Bac Expression System” (Invitrogen). Recombinant bacmid was transfected to Sd9 insect cells using “Cellfectin Reagent” (Invitrogen). 60 h later cells were harvested and supernatant were fractionated by the following protocol: • cells were dissolved into 40 ml of A-buffer (40 mM TRIS, pH8.0, 20% glycerol, 20 μM NAD, 0.4 mM PMSF, 150 mM NaCl, 0.5% dodecyl-β-maltoside+protease inhibitor cocktail) • cells were sonicated • lysate was incubated on ice for 15 min • lysate was centrifuged 5000 rpm 15 min, +4° C. • centrifugation of the supernatant 180 000 g 30 min, +4° C. • pellet was dissolved into 8 ml of A-buffer • not resuspended material was removed by centrifugation 5000 rpm 15 min, +4° C. • the clear supernatant was divided into 100 μl aliquots and were stored frozen until determination of enzymatic activity.
The amount of 17β-HSD2 was analysed by immunoblotting and total protein concentration of each extract batch was determined.
Assay—Inhibition of recombinant human 17β-HSD2: Recombinant protein (4 μg/ml) was incubated in 20 mM KH2PO4 pH 8.5 with 50 nM estradiol (including 800 000 cpm/ml of ^3H-estradiol) and 1 mM NADH for 30 min at RT, in the presence of the potential inhibitor at concentrations 1 μM or 0.1 μM. Inhibitor stock solutions were prepared in DMSO. Final concentration of DMSO was adjusted to 1% in all samples. The enzyme reaction was stopped by addition of 10% trichloroacetic acid (final concentration). Samples were centrifuged in a microtiter plate at 4000 rpm for 10 min. Supernatants were applied to reverse phase HPLC on a Waters Symmetry C18 column, equipped with a Waters Sentry Guard column. Isocratic HPLC runs were performed at RT at a flow rate of 1 ml/min in acetonitrile:water 48:52 as running solvent. Radioactivity was monitored in the eluate by a Packard Flow Scintillation Analyzer. Total radioactivity for estrone and estradiol were determined in each sample and percent conversion of estradiol to estrone was calculated according to the following formula:
(§1) Percent inhibition was calculated flowingly: % inhibition=100−% conversion

[2] = Metabolic stability assay, human liver microsome and homogenate incubations; type: in vitro ADME; settings: human liver homogenate or microsomes, LC/PDA/TOF-MS
Procedure: The in vitro metabolic stability of the compounds of the invention was determined for exemplified compounds using human liver microsome and homogenate incubations. The incubation time points used with or without appropriate cofactors were 0 min and 60 min. Samples were collected at both time points and substrates were detected using LC/PDA/TOF-MS. In vitro metabolic stability (% remaining after 60 min in human liver homogenate or microsomes) of the compounds were calculated and the results are summarized in Table 3.

[3] = target: T2, recombinant human 17β-HSD1 (Homo sapiens, UniProt P14061); test: Inhibition of recombinant human 17β-HSD1 (conversion of 3H-estrone to estradiol, HPLC); type: biochemical; settings: inhibitor 1 μM; 30 nM estrone, 1 mM NADPH, 30 min at RT; read-out: 17β-HDS1 Inhibition % at 1 μM
T2 construct: made in house; host or cells: Sd9 (Sf9) insect cells, baculovirus (Bac to Bac Expression System); microsomal fraction
T2 sequence (P14061 1-328): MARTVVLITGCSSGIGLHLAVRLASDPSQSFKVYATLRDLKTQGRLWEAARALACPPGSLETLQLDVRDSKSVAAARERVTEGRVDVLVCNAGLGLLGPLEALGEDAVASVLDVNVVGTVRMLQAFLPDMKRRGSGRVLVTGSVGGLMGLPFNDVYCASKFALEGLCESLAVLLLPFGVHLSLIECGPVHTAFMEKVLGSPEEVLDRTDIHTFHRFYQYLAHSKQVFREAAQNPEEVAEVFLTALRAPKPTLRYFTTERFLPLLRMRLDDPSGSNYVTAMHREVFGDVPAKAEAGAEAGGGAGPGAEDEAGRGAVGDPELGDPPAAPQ
Procedure: 17β-HSD1 production and isolation: Recombinant baculovirus was generated by the “Bac to Bac Expression System” (Invitrogen). Recombinant bacmid was transfected to Sd9 insect cells using “Cellfectin Reagent” (Invitrogen). 60 h later cells were harvested; the microsomal fraction was isolated as described by Puranen, T. J., Poutanen, M. H., Peltoketo, H. E., Vihko, P. T. and Vihko, R. K. (1994) Site-directed mutagenesis of the putative active site of human 17 β-hydroxysteroid dehydrogenase type 1. Biochem. J. 304: 289-293. Aliquots were stored frozen until determination of enzymatic activity.
Assay—Inhibition of recombinant human 17β-HSD1: Recombinant protein (1 μg/ml) was incubated in 20 mM KH2PO4 pH 7.4 with 30 nM estrone (including 800 000 cpm/ml of ^3H-estrone) and 1 mM NADPH for 30 min at RT, in the presence of the potential inhibitor at concentrations 1 μM or 0.1 μM. Inhibitor stock solutions were prepared in DMSO. Final concentration of DMSO was adjusted to 1% in all samples. The enzyme reaction was stopped by addition of 10% trichloroacetic acid (final concentration). Samples were centrifuged in a microtiter plate at 4000 rpm for 10 min. Supernatants were applied to reverse phase HPLC on a Waters Symmetry C18 column, equipped with a Waters Sentry Guard column. Isocratic HPLC runs were performed at RT at a flow rate of 1 ml/min in acetonitrile:water 48:52 as running solvent. Radioactivity was monitored in the eluate by a Packard Flow Scintillation Analyzer. Total radioactivity for estrone and estradiol were determined in each sample and percent conversion of estrone to estradiol was calculated according to the following formula:
as §1

SMILES: CO/N=C1\C[C@@H](CCC(=O)Nc2ncc(C)s2)C2C3CCc4c(ccc(O)c4F)C3CC[C@]12C (stereo partly drawn) [Compound 92, 3-{(13S,15R)-4-Fluoro-3-hydroxy-17-[(E)-methoxyimino]-13-methyl-7,8,9,11,12,13,14,15,16,17-decahydro-6H-cyclopenta[a]phenanthren-15-yl}-N-(5-methylthiazol-2-yl)propanamide]
- inhibition at 1 µM [1]: 7%
- In vitro metabolic stability, % remaining after 60 min [2]: 68%
- inhibition at 1 µM [3]: 90%

SMILES: Cc1cnc(NC(=O)CC[C@@H]2C/C(=N\O)[C@@]3(C)CCC4c5ccccc5CCC4C23)s1 (stereo partly drawn) [Compound 59, 3-{(13S,15R)-17-[(E)-hydroxyimino]-13-methyl-7,8,9,11,12,13,14,15,16,17-decahydro-6H-cyclopenta[a]phenanthren-15-yl}-N-(5-methylthiazol-2-yl)propanamide]
- inhibition at 1 µM [1]: 2%
- In vitro metabolic stability, % remaining after 60 min [2]: 100%
- inhibition at 1 µM [3]: 93%

SMILES: Cc1cnc(NC(=O)CC[C@@H]2c3c[nH]nc3[C@@]3(C)CCC4c5cc(C(C)(C)C)c(O)cc5CCC4C23)s1 (stereo partly drawn) [Compound 53, 3-((6aS,10S)-3-tert-Butyl-2-hydroxy-6a-methyl-4b,5,6,6a,8,10,10a,10b,11,12-decehydro-7,8-diaza-pentaleno[2,1-1]phenanthren-10-yl}-N-(5-methylthiazol-2-yl)propanamide]
- inhibition at 1 µM [1]: 13%
- In vitro metabolic stability, % remaining after 60 min [2]: 100%
- inhibition at 1 µM [3]: 76%

SMILES: Cc1cnc(NC(=O)CC[C@@H]2c3c[nH]nc3[C@@]3(C)CCC4c5ccc(O)cc5CCC4C23)s1 (stereo partly drawn) [Compound 51, 3-((6aS,10S)-2-Hydroxy-6a-methyl-4b,5,6,6a,8,10,10a,10b,11,12-decehydro-7,8-diaza-pentaleno[2,1-1]phenanthren-10-yl}-N-(5-methylthiazol-2-yl)propanamide]
- inhibition at 1 µM [1]: 15%
- In vitro metabolic stability, % remaining after 60 min [2]: 46%
- inhibition at 1 µM [3]: 82%

SMILES: Cc1cnc(NC(=O)CC[C@@H]2C/C(=N\O)[C@@]3(C)CCC4c5cc(Br)c(O)c(Br)c5CCC4C23)s1 (stereo partly drawn) [Compound 64, 3-{(13S,15R)-2,4-Dibromo-3-hydroxy-17-[(E)-hydroxyimino]-13-methyl-7,8,9,11,12,13,14,15,16,17-decahydro-6H-cyclopenta[a]phenanthren-15-yl}-N-(5-methylthiazol-2-yl)propanamide]
- In vitro metabolic stability, % remaining after 60 min [2]: 95%

SMILES: CO/N=C1\C[C@@H](CCC(=O)Nc2ncc(C)s2)C2C3CCc4cc(O)c(F)cc4C3CC[C@]12C (stereo partly drawn) [Compound 91, 3-{(13S,15R)-2-Fluoro-3-hydroxy-17-[(E)-methoxyimino]-13-methyl-7,8,9,11,12,13,14,15,16,17-decahydro-6H-cyclopenta[a]phenanthren-15-yl}-N-(5-methylthiazol-2-yl)propanamide]
- inhibition at 1 µM [1]: 5%
- In vitro metabolic stability, % remaining after 60 min [2]: 92%
- inhibition at 1 µM [3]: 94%

SMILES: Cc1cnc(NC(=O)CC[C@@H]2C(=C\O)/C(=N\O)[C@@]3(C)CCC4c5cc(Br)c(O)c(Br)c5CCC4C23)s1 (stereo partly drawn) [Compound 70, 3-{(13S,15S)-2,4-Dibromo-3-hydroxy-17-[(Z)-hydroxyimino]-16-[1-hydroxy-meth-(E)-ylidene]-13-methyl-7,8,9,11,12,13,14,15,16,17-decahydro-6H-cyclopenta[a]phenanthren-15-yl}-N-(5-methylthiazol-2-yl)propanamide]
- inhibition at 1 µM [1]: 8%
- In vitro metabolic stability, % remaining after 60 min [2]: 97%
- inhibition at 1 µM [3]: 94%

SMILES: COc1ccc2c(c1)CCC1C2CC[C@]2(C)c3n[nH]cc3[C@@H](CCC(=O)Nc3ncc(C)s3)C12 (stereo partly drawn) [Compound 50, 3-((6aS,10S)-2-Methoxy-6a-methyl-4b,5,6,6a,8,10,10a,10b,11,12-decehydro-7,8-diaza-pentaleno[2,1-1]phenanthren-10-yl}-N-(5-methylthiazol-2-yl)propanamide]
- inhibition at 1 µM [1]: 0%
- In vitro metabolic stability, % remaining after 60 min [2]: 88%
- inhibition at 1 µM [3]: 78%

SMILES: CO/N=C1\C[C@@H](CCC(=O)Nc2ncc(C)s2)C2C3CCc4cc(O)c(Br)cc4C3CC[C@]12C (stereo partly drawn) [Compound 85, 3-{(13S,15R)-2-Bromo-3-hydroxy-17-[(E)-methoxyimino]-13-methyl-7,8,9,11,12,13,14,15,16,17-decahydro-6H-cyclopenta[a]phenanthren-15-yl}-N-(5-methylthiazol-2-yl)-propanamide]
- In vitro metabolic stability, % remaining after 60 min [2]: 34%

SMILES: CO/N=C1\C[C@@H](CCC(=O)Nc2ncc(C)s2)C2C3CCc4cc(O)ccc4C3CC[C@]12C (stereo partly drawn) [Compound 73, 3-{(13S,15R)-3-Hydroxy-17-[(E)-methoxyimino]-13-methyl-7,8,9,11,12,13,14,15,16,17-decahydro-6H-cyclopenta[a]phenanthren-15-yl}-N-(5-methylthiazol-2-yl)propanamide]
- In vitro metabolic stability, % remaining after 60 min [2]: 73%

SMILES: CO/N=C1\C[C@@H](CCC(=O)Nc2ncc(C)s2)C2C3CCc4cc(O)c(Cl)cc4C3CC[C@]12C (stereo partly drawn) [Compound 88, 3-{(13S,15R)-2-Chloro-3-hydroxy-17-[(E)-methoxyimino]-13-methyl-7,8,9,11,12,13,14,15,16,17-decahydro-6H-cyclopenta[a]phenanthren-15-yl}-N-(5-methylthiazol-2-yl)propanamide]
- In vitro metabolic stability, % remaining after 60 min [2]: 94%

SMILES: Cc1cnc(NC(=O)CC[C@@H]2C/C(=N\O)[C@@]3(C)CCC4c5ccc(O)c(Br)c5CCC4C23)s1 (stereo partly drawn) [Compound 63, 3-{(13S,15R)-4-Bromo-3-hydroxy-17-[(E)-hydroxyimino]-13-methyl-7,8,9,11,12,13,14,15,16,17-decahydro-6H-cyclopenta[a]phenanthren-15-yl}-N-(5-methylthiazol-2-yl)propanamide]
- In vitro metabolic stability, % remaining after 60 min [2]: 64%
